Tests used:
[1] = intramolecular disulfide formation by ambient air oxidation of bis-Cys peptides on SiO2 array surface after side-chain deprotection (TFA/TMS-OTf) and NH3-gas DKP detachment; fraction oxidized from MALDI relative peak intensities; details: the molecule shown is the open-chain precursor, none (dry film on SiO2, ambient air), other, 18.0 h, scale: fraction oxidized
Rituximab [2] = assay: Rituximab binding to constrained peptide arrays
Experimental: Cyclized and linear microarrays from Click and lactam wafers were probed using a seven point dilution series of Rituximab (Creative Diagnostics, TAB-016) ranging from 24.0 nM to 0.032 nM with threefold steps. Bound Rituximab was detected using an anti-human IgG-Alexa Fluor™ 555 (Thermo-Fisher) at 4.0 nM. All incubation times were for 1 hr and washes between incubation steps were conducted using Phosphate Buffered Saline with 0.05% Tween 20 (PBST). After the secondary detection step, slides were sequentially washed using PBST, distilled water and a 90% isopropanol rinse. Slides were immediately dried by centrifugation following the isopropanol rinse. Imaged arrays were gridded using commercial software to extract intensities from individual features. Data was analyzed using a custom R script. For both chemistries tested, 24.0 nM Rituximab gave the greatest differential between linear and cyclic copies of the same peptide (present on the same array) and was used for example boxplots. […] In the peptide sequence, B and X represent lactam cyclization residues Lys and Glu respectively. Individual feature replicates for BAEANPSX (cyclic) and BAEANPS (linear) from replicate arrays assayed on two separate slides were used to prepare the boxplot. A p-value comparing the replicate feature intensities was calculated using the anova function in R.

Rituximab [3] = assay: Rituximab binding to biotinyl peptides captured on streptavidin ELISA plates; details: streptavidin ELISA plate; Rituximab 66.0 to 0.03 nM; absorbance at 450 nm
Experimental: To confirm Rituximab binding to the sequences identified in Example 22, the peptides in Table 1 were prepared by Fmoc-based solid phase synthesis. Peptides were biotinylated at either the N-terminal or through the […] side chain with a long chain biotin (LCBiot). Biotinylated peptides were bound to streptavidin ELISA plates. Rituximab in PBST was applied to the array in a dilution series ranging from 66.0 to 0.03 nM using three-fold dilution steps. Plates were incubated for 1 hr at 37° C. and washed 3× with PBST. An anti-human IgG-HRP conjugate was applied to the array at 1.0 μg/mL for 1 hr at 37° C. Plates were washed 3× with PBST and TMB substrate applied for 15 min at 37° C. followed by 2N HCl to stop the reaction. Absorbance was read at 450 nm and the median of triplicate wells plotted against mAb concentration in FIG. 19. Rituximab bound constrained peptide HTP115 but not linear version HTP113 or a constrained sequence with LCBiot at the N-terminal (HTP114). Rituximab also binds to HTP116, a biotinylated version of a cyclic disulfide sequence previously reported to bind to Rituximab (Perosa et al. Blood, 2006, 107 (3), 1070-1077).

Row | Compound | Rituximab binding to biotinyl peptide (Rituximab [3]) | ring closure, fraction oxidized by MALDI ([1]; 20-membered ring) | other results
1 | COc1cc(OC)c([P+](CC(=O)N[C@@H](CCCCN)C(=O)N[C@@H](CS)C(=O)N[C@H](C(=O)N2CCC[C@H]2C(=O)NCC(=O)N[C@@H](Cc2c[nH]cn2)C(=O)N[C@@H](CS)C(=O)N[C@@H](CC(C)C)C(=O)NCCCC[C@@H]2NC(=O)[C@@H]3CCCN3C2=O)[C@@H](C)O)(c2c(OC)cc(OC)cc2OC)c2c(OC)cc(OC)cc2OC)c(OC)c1 | – | 0.63 | –
2 | COc1cc(OC)c([P+](CC(=O)N[C@@H](CS)C(=O)N[C@H](C(=O)N2CCC[C@H]2C(=O)NCC(=O)N[C@@H](Cc2c[nH]cn2)C(=O)N[C@@H](CS)C(=O)NCCCC[C@@H]2NC(=O)[C@@H]3CCCN3C2=O)[C@@H](C)O)(c2c(OC)cc(OC)cc2OC)c2c(OC)cc(OC)cc2OC)c(OC)c1 | – | 0.79 | –
3 | COc1cc(OC)c([P+](CC(=O)N[C@@H](CS)C(=O)N[C@H](C(=O)N[C@@H](CCC(N)=O)C(=O)N[C@@H](Cc2c[nH]cn2)C(=O)N[C@@H](Cc2ccc(O)cc2)C(=O)N[C@@H](CS)C(=O)NCCCC[C@@H]2NC(=O)[C@@H]3CCCN3C2=O)[C@@H](C)O)(c2c(OC)cc(OC)cc2OC)c2c(OC)cc(OC)cc2OC)c(OC)c1 | – | 0.75 | –
4 | COc1cc(OC)c([P+](CC(=O)N[C@@H](CS)C(=O)N[C@@H](CS)C(=O)NCCCC[C@@H]2NC(=O)[C@@H]3CCCN3C2=O)(c2c(OC)cc(OC)cc2OC)c2c(OC)cc(OC)cc2OC)c(OC)c1 [TMPP-Ac-Cys-Cys-DKP [DKP = N-epsilon of cyclo(Lys-Pro)]] | – | – | ring closure, fraction oxidized by MALDI ([1]; 8-membered ring): 0.8
5 | BAEANPSX | – | – | change of Rituximab binding upon Click cyclization (Rituximab [2]; cyclic versus linear feature, Click array): not; change of Rituximab binding upon lactam based cyclization (Rituximab [2]; cyclic versus linear feature, lactam array): increases; Rituximab binding on lactam array (rank among binders) (Rituximab [2]; lactam array, 24.0 nM Rituximab): amongst the top Rituximab binders

Further lines, with some results ahead:

Row | Rituximab binding to biotinyl peptide (Rituximab [3]) | Compound | ring closure, fraction oxidized by MALDI ([1]; 20-membered ring) | other results
6 | binds | LCBiot-ACPYANPSLC amide (cyclic disulfide) [HTP116, reference compound] | – | –
7 | not | LCBiot-K(Ac)AEANPSQ amide [HTP113] | – | –
8 | not | LCBiot-cyclo[KeAEANPSQ] [HTP114] | – | –
9 | bound | cyclo[KεAEANPSQ(LCBiot)] amide [HTP115] | – | –
